Publication PMC6112376, “Comprehensive Analyses and Prioritization of Tox21 10K Chemicals Affecting Mitochondrial Function by in-Depth Mechanistic Studies” (Environmental Health Perspectives, 2018)
Where two headings read alike, the source gives them in different places.

Columns and labels:
HepG2 cells [1] = conditions: cited from earlier work
rat primary hepatocytes [2] = system: rat primary hepatocytes
HepG2 cells [3] = assay: cells; conditions: Homo sapiens; for IC50: HepG2, read-out: MMP assays IC50 (µM) HepG2; for Emax: HepG2, read-out: MMP assays efficacy (%) HepG2
rat primary hepatocytes [4] = assay: MMP assay in rat primary hepatocytes; conditions: for IC50: Rattus norvegicus, Hepatocyte, read-out: MMP assays IC50 (µM) Rat Hepatocytes
[5] = read-out: MMP assays IC50 (µM) qHTS-HepG2
[6] = read-out: MMP assays IC50 (µM), qHTS-HepG2

| SMILES | MMP assays efficacy (%) qHTS-HepG2 (HepG2 cells [1]) | IC50 (HepG2 cells [1]; [5]) | MMP assays efficacy (%) Rat Hepatocytes (rat primary hepatocytes [2]) | IC50 (HepG2 cells [3]) | Emax (HepG2 cells [3]) | IC50 (rat primary hepatocytes [4]) | IC50 (HepG2 cells [1]; [6]) | MMP assays IC50 (µM) Rat Hepatocytes (rat primary hepatocytes [4]) |
| --- | --- | --- | --- | --- | --- | --- | --- | --- |
| Brc1ccc(Oc2cc(Br)c(Br)cc2Br)c(Br)c1 [2,2',4,4',5-Pentabromodiphenyl ether] | -109±22% | 8 ± 3.19 µM | -43±30% | 4.47 µM | 88% | 9.11 ± 4.93 µM | – | – |
| CC1(C)[C@H](C(=O)O[C@H](C#N)c2cccc(Oc3ccccc3)c2)[C@@H]1/C=C(\Cl)C(F)(F)F [lambda-Cyhalothrin] | -68±22% | – | -56±14% | 15.8 µM | 58% | 28.2 µM | 24.4 ± 1.59 µM | – |
| Cc1cc(O)c2c3c4c(cc(O)c13)C(C)(C)C(=O)c1c(O)cc(O)c(c1-4)C2=O [Geliomycin] | -120±11% | – | -101±18% | 0.19 µM | 94% | 0.55 ± 0.31 µM | 0.52 ± 0.04 µM | – |
| N=C(N)NN=C1C=CC(=NNC(N)=S)C=C1 [Ambazone] | -98±7% | 5.6 ± 3.23 µM | -52±11% | 3.98 µM | 61% | 1.98 ± 2.22 µM | – | – |
| CCN1/C(=C/C=C/C=C/c2sc3ccccc3[n+]2CC)Sc2ccccc21 [Dithiazanine iodide] | -85±6% | 0.1 ± 0.15 µM | -59±11% | 0.0275 µM | 88% | 0.98 ± 0.16 µM | – | – |
| Oc1cc(Cl)cc(Cl)c1Cl [2,3,5-Trichlorophenol] | -99±7% | 5.8 ± 1.05 µM | -77±25% | 6.31 µM | 114% | 27.7 ± 10.4 µM | – | – |
| O=C1C2(Cl)C3(Cl)C4(Cl)C(Cl)(Cl)C5(Cl)C3(Cl)C1(Cl)C5(Cl)C24Cl (centres unmarked) [Kepone] | -101±8% | – | -107±26% | 2.82 µM | 99% | 10.2 ± 9.25 µM | 0.93 ± 0.65 µM | – |
| Clc1ccccc1-c1ccccc1Cl [2,2'-Dichlorobiphenyl] | -71±13% | 31.1 ± 12.3 µM | inactive | 63.1 µM | 76% | – | – | inactive |
| Nc1ccc(/N=N/c2ccc(N)cc2)cc1 [4,4'-Diaminoazobenzene] | -86±5% | 10.5 ± 3.59 µM | -50±40% | 5.62 µM | 87% | 26.6 ± 12.5 µM | – | – |
| O=C(O)Cc1sc(-c2ccccc2)nc1-c1ccc(Cl)cc1 [Fentiazac] | -91±18% | 27.4 ± 2.92 µM | -88±22% | 19.4 µM | 57% | 9.49 ± 7.98 µM | – | – |
| CC(=O)N1CCN(c2ccc(OCC3COC(Cn4ccnc4)(c4ccc(Cl)cc4Cl)O3)cc2)CC1 (centres unmarked) [Ketoconazole] | -56±14% | – | inactive | 5.48 µM | 55% | – | 10.8 ± 3.25 µM | inactive |
| O=c1cc(-c2ccc(O)cc2)oc2cc(O)cc(O)c12 [Apigenin] | -98±2% | 1.61 µM | -66±35% | 3.55 µM | 88% | 28.9 ± 9.26 µM | – | – |
| Brc1ccc(Oc2ccc(Br)cc2Br)c(Br)c1 [2,2'4,4'-Tetrabromodiphenyl ether] | -119±10% | 22.6 ± 5.18 µM | -42±10% | 39.8 µM | 104% | 25.6 ± 34.7 µM | – | – |
| OC(c1ccc(Cl)cc1)(c1cncnc1)c1ccccc1Cl (centres unmarked) [Fenarimol] | -77±13% | 42.6 ± 21.9 µM | -81±45% | 35.5 µM | 81% | 33.5 ± 2.73 µM | – | – |
| ClC1=C(Cl)C2(Cl)C3C4C=CC(C4)C3C1(Cl)C2(Cl)Cl (centres unmarked) [Aldrin] | -86±11% | 31.2 ± 7.21 µM | inactive | 39.8 µM | 106% | – | – | inactive |
| O=C(NC(=O)c1c(F)cccc1F)Nc1cc(Cl)c(Oc2ncc(C(F)(F)F)cc2Cl)c(Cl)c1 [Chlorfluazuron] | -114±19% | 8.93 ± 4.57 µM | -79±42% | 12.6 µM | 98% | 29.3 ± 1.99 µM | – | – |
| O=[N+]([O-])c1ccc2c3c(cccc13)CC2 [Compound 5-Nitroacenaphthene] | -82±23% | 34.4 ± 20.4 µM | -78±25% | 56.2 µM | 50% | 24 ± 16.2 µM | – | – |
| CN(C)C(=S)SSC(=S)N(C)C [THIRAM] | -57±29% | – | -96±85% | 24.5 µM | 66% | 16.5 ± 20.3 µM | – | – |
| CSC1=N[C@@](C)(c2ccccc2)C(=O)N1Nc1ccccc1 [Fenamidone] | -72±14% | 43.3 ± 17.1 µM | -56±23% | 19.9 µM | 59% | 42.8 ± 10.3 µM | – | – |
| CC1CCCCC1NC(=O)Nc1ccccc1 (centres unmarked) [Siduron] | -73±13% | – | -48±7% | 35.5 µM | 89% | 43.9 ± 17.4 µM | 41.6 ± 21.1 µM | – |
| CC(C)(C)c1cc(O)c(C(C)(C)C)cc1O [2,5-Di-tert-butylbenzene-1,4-diol] | -107±12% | 7.41 ± 1.27 µM | -73±5% | 7.94 µM | 98% | 39.1 ± 15.5 µM | – | – |
| COC(=O)N(C(=O)N1CO[C@@]2(C(=O)OC)Cc3cc(Cl)ccc3C2=N1)c1ccc(OC(F)(F)F)cc1 [Indoxacarb] | -83±20% | – | -88±26% | 15.3 µM | 57% | 34.4 ± 5.58 µM | 12.7 ± 3.65 µM | – |
| Cc1ccc2ccc3cccc4ccc1c2c34 [Compound 1-Methylpyrene] | -112±32% | 43.2 ± 4.99 µM | -57±10% | 39.8 µM | 112% | 32.2 ± 7.36 µM | – | – |
| Nc1ccccc1N [1,2-Phenylenediamine] | -96±16% | 3.9 ± 3.61 µM | -41±14% | 2.51 µM | 87% | 17.9 ± 6.5 µM | – | – |
| O=C(Nc1ccc(Cl)c(Cl)c1)c1cc(Cl)cc(Cl)c1O [3,5-Dichlorosalicyl-3,4-dichloroanilide] | -105±6% | 0.22 ± 0.09 µM | -67±6% | 0.11 µM | 93% | 0.38 ± 0.03 µM | – | – |
| O=C(Nc1cccc(Cl)c1)OCC#CCCl [Barban] | -116±9% | 22.5 ± 4.1 µM | -68±37% | 25.1 µM | 87% | 36 ± 7.53 µM | – | – |
